Measured values from the supplement of paper PMC10883282.
± gives the standard deviation of the averaged measurements.

What was measured:
Assay in all cases: relative viability vs DMSO control (72 h) (fraction); higher = more viable cells
[1] = system: KHOS-240S
How it was run: (§1)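 After seeding at densities set for 80–90% confluence in 384-well plates, sarcoma cell lines waited 24 h before 2.5 µl of serially diluted compound was added. Source plates held 10 mM down to 0.0002 mM. Plates were incubated 72 h at 37 °C with 5% CO2, with 0.1% DMSO vehicle and a 5 µM positive control, and relative viability was taken from ATPLite as percent growth averaged over up to triplicate wells, with 1 set as full and 0 as none.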

[2] = system: SW872
How it was run: as §1

[3] = system: A204
How it was run: as §1

[4] = system: SK-LMS-1
How it was run: as §1

[5] = system: SYO-1
How it was run: as §1

[6] = system: SK-ES-1
How it was run: as §1

[7] = system: HS729
How it was run: as §1

[8] = system: SW982
How it was run: as §1

[9] = system: SW1353
How it was run: as §1

[10] = system: G401
How it was run: as §1

[11] = system: MES-SA
How it was run: as §1

[12] = system: SW684
How it was run: as §1

COCCNc1cc(NC(=O)N2CCCc3cc(CN4CCN(C)CC4=O)c(C=O)nc32)ncc1C#N [Roblitinib]
Conditions	relative viability
[1], 0.00017 µM	1.04 ± 0.029
[1], 0.00051 µM	1.04 ± 0.032
[1], 0.00152 µM	1.026 ± 0.0035
[1], 0.00457 µM	1.04 ± 0.021
[1], 0.01372 µM	1.02 ± 0.019
[1], 0.04115 µM	1.03 ± 0.0099
[1], 0.1235 µM	1.035 ± 0.0076
[1], 0.3704 µM	1.03 ± 0.028
[1], 1.111 µM	1 ± 0.017
[1], 3.333 µM	0.963 ± 0.034
[1], 10 µM	0.967 ± 0.055
[2], 0.00017 µM	0.926 ± 0.028
[2], 0.00051 µM	0.924 ± 0.054
[2], 0.00152 µM	0.968 ± 0.065
[2], 0.00457 µM	0.951 ± 0.052
[2], 0.01372 µM	0.939 ± 0.02
[2], 0.04115 µM	0.963 ± 0.061
[2], 0.1235 µM	0.921 ± 0.015
[2], 0.3704 µM	0.977 ± 0.042
[2], 1.111 µM	0.9644 ± 0.0077
[2], 3.333 µM	0.974 ± 0.047
[2], 10 µM	0.988 ± 0.012
[3], 0.00017 µM	1.05 ± 0.011
[3], 0.00051 µM	1.09 ± 0.059
[3], 0.00152 µM	1.03 ± 0.044
[3], 0.00457 µM	1.08 ± 0.018
[3], 0.01372 µM	1.06 ± 0.027
[3], 0.04115 µM	1.07 ± 0.056
[3], 0.1235 µM	1.04 ± 0.057
[3], 0.3704 µM	1.02 ± 0.045
[3], 1.111 µM	1.03 ± 0.061
[3], 3.333 µM	0.922 ± 0.05
[3], 10 µM	0.812 ± 0.014
[4], 0.00017 µM	0.941 ± 0.02
[4], 0.00051 µM	0.942 ± 0.05
[4], 0.00152 µM	0.932 ± 0.029
[4], 0.00457 µM	0.957 ± 0.023
[4], 0.01372 µM	0.938 ± 0.027
[4], 0.04115 µM	0.988 ± 0.013
[4], 0.1235 µM	0.921 ± 0.016
[4], 0.3704 µM	0.995 ± 0.023
[4], 1.111 µM	0.984 ± 0.044
[4], 3.333 µM	0.883 ± 0.032
[4], 10 µM	0.858 ± 0.061
[5], 0.00017 µM	0.933 ± 0.019
[5], 0.00051 µM	0.931 ± 0.022
[5], 0.00152 µM	0.9221 ± 0.0044
[5], 0.00457 µM	0.92 ± 0.03
[5], 0.01372 µM	0.914 ± 0.049
[5], 0.04115 µM	0.889 ± 0.022
[5], 0.1235 µM	0.879 ± 0.036
[5], 0.3704 µM	0.855 ± 0.059
[5], 1.111 µM	0.867 ± 0.052
[5], 3.333 µM	0.845 ± 0.061
[5], 10 µM	0.87 ± 0.099
[6], 0.00017 µM	0.964 ± 0.035
[6], 0.00051 µM	0.979 ± 0.019
[6], 0.00152 µM	0.986 ± 0.023
[6], 0.00457 µM	0.974 ± 0.022
[6], 0.01372 µM	1.03 ± 0.032
[6], 0.04115 µM	0.973 ± 0.032
[6], 0.1235 µM	1.02 ± 0.047
[6], 0.3704 µM	0.985 ± 0.026
[6], 1.111 µM	0.92 ± 0.015
[6], 3.333 µM	0.916 ± 0.019
[6], 10 µM	0.74 ± 0.018
[7], 0.00017 µM	0.894 ± 0.071
[7], 0.00051 µM	0.906 ± 0.08
[7], 0.00152 µM	0.906 ± 0.061
[7], 0.00457 µM	0.894 ± 0.057
[7], 0.01372 µM	0.891 ± 0.031
[7], 0.04115 µM	0.876 ± 0.068
[7], 0.1235 µM	0.858 ± 0.05
[7], 0.3704 µM	0.858 ± 0.016
[7], 1.111 µM	0.849 ± 0.042
[7], 3.333 µM	0.892 ± 0.046
[7], 10 µM	0.914 ± 0.047
[8], 0.00017 µM	1.013 ± 0.0057
[8], 0.00051 µM	0.995 ± 0.019
[8], 0.00152 µM	0.991 ± 0.02
[8], 0.00457 µM	1.03 ± 0.04
[8], 0.01372 µM	0.992 ± 0.016
[8], 0.04115 µM	1.03 ± 0.051
[8], 0.1235 µM	0.992 ± 0.018
[8], 0.3704 µM	1.03 ± 0.04
[8], 1.111 µM	1.03 ± 0.023
[8], 3.333 µM	1.01 ± 0.065
[8], 10 µM	0.9846 ± 0.0093
[9], 0.00017 µM	0.959 ± 0.041
[9], 0.00051 µM	0.935 ± 0.031
[9], 0.00152 µM	0.899 ± 0.032
[9], 0.00457 µM	0.95 ± 0.067
[9], 0.01372 µM	0.953 ± 0.032
[9], 0.04115 µM	0.953 ± 0.029
[9], 0.1235 µM	0.942 ± 0.036
[9], 0.3704 µM	0.958 ± 0.033
[9], 1.111 µM	0.922 ± 0.027
[9], 3.333 µM	0.949 ± 0.014
[9], 10 µM	0.961 ± 0.014
[10], 0.00017 µM	0.974 ± 0.018
[10], 0.00051 µM	0.955 ± 0.034
[10], 0.00152 µM	0.929 ± 0.012
[10], 0.00457 µM	0.9122 ± 0.0064
[10], 0.01372 µM	0.943 ± 0.012
[10], 0.04115 µM	0.93 ± 0.036
[10], 0.1235 µM	0.96 ± 0.047
[10], 0.3704 µM	0.967 ± 0.069
[10], 1.111 µM	0.943 ± 0.033
[10], 3.333 µM	0.935 ± 0.038
[10], 10 µM	0.8671 ± 0.0083
[11], 0.00017 µM	0.912 ± 0.035
[11], 0.00051 µM	0.892 ± 0.015
[11], 0.00152 µM	0.878 ± 0.04
[11], 0.00457 µM	0.885 ± 0.056
[11], 0.01372 µM	0.883 ± 0.017
[11], 0.04115 µM	0.884 ± 0.024
[11], 0.1235 µM	0.879 ± 0.039
[11], 0.3704 µM	0.889 ± 0.055
[11], 1.111 µM	0.882 ± 0.034
[11], 3.333 µM	0.839 ± 0.069
[11], 10 µM	0.79 ± 0.021
[12], 0.00017 µM	1.1 ± 0.018
[12], 0.00051 µM	1.09 ± 0.054
[12], 0.00152 µM	1.08 ± 0.037
[12], 0.00457 µM	1.03 ± 0.038
[12], 0.01372 µM	1.04 ± 0.069
[12], 0.04115 µM	1.05 ± 0.056
[12], 0.1235 µM	1.09 ± 0.043
[12], 0.3704 µM	1.08 ± 0.018
[12], 1.111 µM	1.13 ± 0.082
[12], 3.333 µM	1.09 ± 0.068
[12], 10 µM	1.02 ± 0.012
